Drawing on PubChem BioAssay AID179 (DTP/NCI, 2004), this text covers EC50, IC50 and outcome for 30 compounds.

Each structure is given as a SMILES string. Active and inactive are the calls of the source.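 Rule for the calls: active = compounds giving half or more protection of infected cells from virus-caused growth loss, again on retest; inactive = the rest.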

The assay deals with CEM cells HIV-1 protection, formazan growth assay. The assay can be described thus: NCI AIDS Antiviral Assay. The note with it: for IC50: measured here: growth of uninfected CEM cells. In short, it runs like this:
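Soluble formazan readout of cell growth; CEM cells ± HIV-1; 5 drug concs. ≥50% protection → retest; ≥50% again = moderately active; reproducible 100% = confirmed active.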

As for `CC(=O)Nc1ccccc1`, the EC50 (in general, the midpoint of the concentration-response curve) was over 1860 µM and the IC50 – broadly, the concentration needed to halve the response being measured – was over 1860 µM. Regarding `Nc1ccc(Nc2cc(=O)[nH]c(=O)[nH]2)cc1`, the EC50 was over 200 µM and the IC50 is over 200 µM. As for `CCO/C(Cc1ccc(Cl)cc1)=N/NC(N)=S`, the EC50 was over 200 µM and the IC50 is 95.5 µM.

As to `Cc1ccc(SC(C)/C=C/NNC2=NC(c3ccccc3)C(c3ccccc3)=NN2)cc1` (stereo unspecified), the EC50 is over 22.4 µM and the IC50 was over 22.4 µM. Take `Cc1ccc(-c2nc3n(c2/C=N\N=C(N)N)CCS3)cc1`: the EC50 is over 200 µM and the IC50 was 29.5 µM. As for `CCCCCCCCCCCCCCCCOCC(CN(C)CCN(C)C)OCCCCCCCCCCCCCCCC` (stereo unspecified), the result was inactive. For the compound `Cc1cc(=O)oc2c3c4c(cc12)CCCN4CCC3`, the EC50 is over 14.8 µM and the IC50 is over 14.8 µM. `O=S(=O)(O)C(O)C(F)(F)C(F)(F)C(F)(F)F` (stereo unspecified): the EC50 was over 200 µM and the IC50 was over 200 µM. `NC(=O)CCC(CCC(N)=O)(CCC(N)=O)[N+](=O)[O-]`: the EC50 was over 200 µM and the IC50 is over 200 µM. Regarding `O=C1C[C@@H]2C(COC(=O)c3ccccc3)N(OCc3ccccc3)C[C@@H]2O1` (stereo partly specified), the EC50 was over 97.7 µM and the IC50 was over 97.7 µM. On to `CCOC(=O)C1=C(Nc2ccc(Cl)cc2Cl)OC/C1=N\NS(=O)(=O)c1ccc(C)cc1`, for which the EC50 was over 28.2 µM and the IC50 is over 28.2 µM. Consider `CCC(C)[C@H](NC(=O)c1ccccc1S)C(=O)O` (stereo partly specified), for which the EC50 is 8.51 µM and the IC50 amounted to 110 µM. On to `O=[N+]([O-])c1nccn1CCC[n+]1ccc2ccccc2c1`, for which the EC50 is over 100 µM and the IC50 came to 74.1 µM. As for `NC(=O)c1nnn(Cc2cc(Cl)c(C(=O)c3ccc(Cl)cc3)c(Cl)c2)c1N`, the EC50 was over 200 µM. With `CC1=NC2C(=O)N(C)C(=O)N(C)C2n2c(O)ccc21` (stereo unspecified), the EC50 is over 2 µM and the IC50 was over 2 µM. For the compound `COc1cc2c(c3c1[C@@H](O)[C@H](C)[C@@H](C)O3)C=CC(C)(C)O2`, the EC50 is over 200 µM and the IC50 is 79.4 µM. Regarding `COC1=C(C)C(=O)C(=O)c2ccc(C)nc21`, the result was inactive.

For `C=C(C)[C@@H]1CC=C2[C@H](O)CC(O)C(C)[C@@]2(C)C1` (stereo partly specified), the EC50 was over 209 µM and the IC50 is 51.3 µM. The like results for `OCCN1CCN(CCCN2c3ccccc3Sc3ccc(C(F)(F)F)cc32)CC1` were, in that order, over 200 µM and 10.2 µM.

As for `N#C/C(=C/c1cccc(Oc2ccccc2)c1)c1ccccc1`, the EC50 was over 6.76 µM and the IC50 was over 6.76 µM.

On to `CC(=O)/C(C)=C(/C)[O-].CC(=O)/C(C)=C(/C)[O-].NCCNCCCNC(=O)c1cccc2cc3ccccc3nc12.[Co+3].[O-][Cl+3]([O-])([O-])[O-]`, for which the EC50 was over 100 µM and the IC50 turned out to be 3.47 µM. The like results for `CC1(C)CCCC2CC2CCC(C)(C)C1=O` (stereo unspecified) were, in that order, over 200 µM and 105 µM. As for `Oc1cc2c(cc1C(c1cc3c(cc1O)OCO3)c1cc3c(cc1O)OCO3)OCO2`, the EC50 is over 117 µM and the IC50 stood at 22.4 µM. The like results for `CCCCCCCCCCCCC/C=C/[C@H]1[C@@H](C(=O)OC)N1S(=O)c1ccc(C)cc1` (stereo partly specified) were, in that order, over 200 µM and 74.1 µM. The like results for `O=[N+]([O-])c1cc2c(c3nonc13)OCCCCO2` were, in that order, over 200 µM and 1.15 µM. The like results for `O=C(NCCN1CCCCC1)c1ccc(Br)cc1` were, in that order, over 200 µM and over 200 µM. With `COc1cc(-c2cccs2)sc1-c1cccs1`, the EC50 was over 9.77 µM and the IC50 was over 9.77 µM. Turning to `COc1ccc2nc3cccc([N+](=O)[O-])c3c(NCCN(C)C)c2c1`, the EC50 is over 2 µM and the IC50 came to 0.0977 µM. `O=C(CCCl)N1CCN(C(=O)CCCl)c2c1c1ccccc1c1ccccc21`: the EC50 was over 200 µM and the IC50 is 3.02 µM.

In the case of `O=C(O)CCNS(=O)(=O)c1ccc2ccccc2c1`, the outcome was inactive.
